In patent US20030176651A1, “Multiprotein-complex comprising a nmda receptor and uses thereof” (priority 2000, published 2003):
“Also recorded” adds a separate entry of the source. Read-outs that look alike come from different tables or passages of the source.

How the values were obtained:
[1] = test system: NMDA receptors; settings: rats, cited from earlier work
[2] = test system: mouse brain proteins / multi-protein complex (PSD-95, NMDA receptor); experiment: Peptide affinity chromatography of mouse brain DOC extracts (SDS-PAGE); format: binding; settings: 0.5 ml mouse brain DOC extract, Coomassie stained SDS-PAGE
Description: Peptides were solubilised and coupled to affigel-10 in methanol at 5 mg/ml resin for 3 days at 4° C. with constant agitation and residual active side chains were blocked with 0.5 M Tris pH8.8 for 1 day at 4° C. followed by transfer of the resin to PBS.
Initial small-scale experiments were done using 0.5 ml brain DOC extract and 25 μl affigel-10 immobilised peptides. The resins were washed four times with 0.5 ml cold DOC buffer after an incubation period of four hours at 4° C. with constant agitation followed by SDS-PAGE analysis. Large scale samples were prepared by adding 0.5 ml NR2B 1477-1482 peptide derivatised affigel-10 with 50 ml DOC extract followed by an incubation overnight at 4° C. with constant agitation. The resin was then transferred into a chromatography column and washed to baseline with approximately 100 ml cold DOC buffer. Bound proteins were released from the resin by boiling for 30 minutes in 4% SDS-containing buffer and 20 μl aliquots were subsequently used for SDS-PAGE analysis and Western blotting (see Example 2).

[3] = target: multi-protein complex comprising NMDA receptor (NR1, NR2B, PSD-95) (Mus musculus, UniProt P35438+Q01097); experiment: Ligand affinity chromatography of mouse brain DOC extracts (SDS-PAGE, Western blotting); format: binding
[4] = test system: mice with chronic constriction injury (CCI) to the sciatic nerve / naive mice; experiment: Thermal hyperalgesia (Hargreaves, paw withdrawal latency) after intrathecal drug treatment; format: in vivo, mouse; settings: for reversal of thermal hyperalgesia ipsilateral to CCI: wild type mice, intrathecal in 10 μl, (R)-CPP 100 ρmol, peptide 1 n mole, K-93/KN-92 120 pmol
Description: (§1) Animals were initially anaesthetised with sodium pentobarbital (Sagatal; 0.01 ml/kg (1:4 in saline, i.p.; Rhône Mérieux, UK) and this was then supplemented with halothane O2 (Zeneca, UK). Under aseptic conditions, using a variation of the method of Bennett and Xie for rat [G. J. Bennett and Y. K. Xie, Pain 33, 87 (1988)], the sciatic nerve was exposed at the mid-thigh level proximal to the sciatic trifurcation. Three chromic catgut ligatures (5.0; Ethicon, Edinburgh) separated by 1 mm were tied loosely to constrict the […] as viewed under 40× magnification. Vascular supply was not compromised. The overlying muscle and skin were sutured and the animals were placed in a recovery cage.
(§2) Animals were tested for 6 days prior to surgery in order to establish stable baseline levels for each test and then every one or two days post-operatively (PO). The responses were compared to the average of the pre-surgery values and the contralateral control. The animals were examined daily to ensure that no autotomy was present.
Thermal hyperalgesia was monitored using Hargreaves' Thermal Stimulator (Linton Instruments, USA). The stimulus was applied to the mid-plantar surface of the hind paw. The withdrawal response was characterised as a brief paw flick. The latency of withdrawal was recorded for the ipsilateral (injured) and the contralateral hindpaws. The means of between 5 and 10 readings were recorded at 3-5 min intervals to ensure no hypersensitivity to the test was established. Mean basal values for pre-operative paw withdrawal latency were typically around 5 sec.
(§3) Baseline measurements were recorded for thermal hyperalgesia (Hargreaves' test) and mechanical allodynia (von Frey filament test) in mice which had undergone the chronic constriction injury and were at the peak of neuropathy. Mice were anaesthetised with halothane and O2. Drugs were injected intrathecally, in 10 μl saline, at the L4 level of the spinal cord using a 25 μl microsyringe [J. L. Hylden and G. L. Wilcox, Eur. J. Pharmacol., 67, 313 (1980)]. The experimenter was blind to the content of the injections so as to eliminate bias, and dye injections (Pontamine Sky Blue) were performed to determine the site of injection. 15 minutes following injection, mice were re-tested using the same procedures and measurements were taken to determine the effects of drug on hyperalgesia and allodynia. Animals were tested every 5 minutes until readings returned to baseline levels.

[5] = test system: mice with chronic constriction injury (CCI) to the sciatic nerve / naive mice; experiment: Mechanical allodynia (von Frey filaments, paw withdrawal threshold) after intrathecal drug treatment; format: in vivo, mouse; settings: for reversal of mechanical allodynia ipsilateral to CCI: wild type mice, intrathecal in 10 μl, (R)-CPP 100 ρmol, peptide 1 n mole, K-93/KN-92 120 pmol
Description: as §1, §2
Mechanical allodynia was measured as the withdrawal threshold to calibrated Semmes-Weinstein von Frey filaments (Stoelting, Wood Dale, Ill.) with a bending force of 0.22-84.96 g. The mice were placed in a small rectangular cage. The filaments were applied to the mid-plantar surface of the hindpaw from beneath until the filament started to bend. This stimulus was repeated 8-10 times at 1-2 sec intervals for both the injured and uninjured hindpaws. The mean threshold required to elicit a withdrawal response was recorded. The filaments were applied in ascending order, and a response was characterised as a brief paw flick. The withdrawal threshold was defined from the lower of two consecutive von Frey filaments that elicited a response. Data were expressed as the threshold indentation pressure (i.e. the bending force/the cross-sectional area at the tip of the filament). Mean basal values for pre-operative paw withdrawal threshold were typically around 600 mN.mm^−2.
as §3

[6] = test system: CaM kinase II; experiment: Ex vivo CaM kinase II activity assay after topical application to dorsal spinal cord; format: in vivo, mouse; settings: for activation of constitutive CaM kinase II activity, wild type versus PSD-95 mutant: naive mice, topical 15 min, NMDA 500 μM with glycine 100 μM, ionomycin 10 μM
Description: Following lumbar L3-6 laminectomy under anaesthesia, mice, which in some cases had previously received chronic constriction injury, were treated by topical application of agents to the dorsal surface of the spinal cord. […] Constitutive (autophosphorylated) and Ca^2+/CM-elicited activity of CaM II kinase [P. I. Hanson et al., Neuron 3, 59 (1989); P. M. Jones and S. J. Persaud, Am. J. Physiol. 274, E708 (1998)] were measured by the following procedure. Samples were rapidly homogenised on ice in 20 mM Na HEPES pH 7.5 with 5% glycerol, 1 mM EGTA, 1 mM dithiothreitol, 1 mM AEBSF, 2 μg.ml^−1 aprotinin, 10 μg.ml^−1 leupeptin, 2 μg.ml^−1 pepstatin, 50 μg.ml^−1 soybean trypsin inhibitor, 25 mM Na β-glycerophosphate, 1 mM Na orthovanadate, 1 mM Na F, 1 μM calyculin A, 1 μM cypermethrin. Following a 30 min incubation on ice with 0.25% CHAPS and clarification, samples were incubated at 4° C. for 2 hours with 3 μg.ml^−1 mouse anti-α-CaM kinase II IgG (clone CBα-2; Zymed) and then with excess Protein G-Sepharose for 1 hour. Aliquots of washed immunoprecipitate were incubated for 20 min at 30° C. (linear range of assay) with 50 μM autocamtide-2, 50 μM ATP (with [^33P] γ-ATP to 0.25 μCi/tube), 10 mM MgCl2 and 8 μg.ml^−1 purified bovine calmodulin (Sigma), in the presence of 0.5 μM PKC-α19-31 and 0.5 μM PKI6-22 amide (to suppress any PKC and PKA-mediated activity respectively) before termination with cold TCA (to 10%), centrifugation and spotting of the supernatant onto P81 phospho-cellulose paper.
Samples were washed extensively in 75 mM H3PO4 and dried before scintillation counting. Constitutive and maximal Ca^2+-evoked activity were measured in the absence and presence of 2 mM CaCl2 respectively. Zero time and substrate-free blanks were less than 2% of maximal activity. Parallel immunoblotting experiments were attempted with phospho-specific antisera for Thr^286-CaM kinase II (the key autophosphorylation site), but gave insufficient signal:noise ratios for further use.

[7] = test system: hippocampal CA1 region slices (MEK inhibitor)
Description: Low resistance glass microelectrodes filled with ACSF were placed into stratum radiatum of the hippocampal CA1 region to record field excitatory postsynaptic potentials (fEPSPs) evoked by presynaptic stimulation pulses delivered once every 50 seconds to the Schaffer collateral/commissural fibers via a bipolar nichrome wire stimulating electrode. At the beginning of each experiment the intensity of presynaptic fiber stimulation was adjusted to evoke fEPSPs that were approximately half of the maximal fEPSP amplitude that could be evoked by strong intensity stimulation. High-frequency stimulation-induced LTP was elicited using two trains of 100 Hz stimulation (1 sec. in duration) delivered with an inter-train interval of 10 seconds. To elicit saturating levels of LTP we delivered 6, one-second-long trains of 100 Hz stimulation with an inter-train interval of 5 minutes. For statistical comparisons (unpaired t-tests, two-tailed, N=number of animals) we compared the average amount of potentiation present 55 to 60 minutes after the first high-frequency stimulation train or 40 to 45 minutes after low-frequency trains of stimulation. […] Similar results were obtained with both internal solutions and the results were combined. […] All experiments and initial data analysis were performed blind except for experiments done on 3 H-Ras^−/− mutant mice. […] All values are reported as mean±SEM.

[8] = ligand coupled to PharmaLink resin
[9] = naive PSD-95 mutant mice, intrathecal NMDA
[10] = naive wild type mice, intrathecal NMDA 0.25 nmol in 10μl
[11] = CCI wild type mice, intrathecal

NC(CCCP(=O)(O)O)C(=O)O (stereo not drawn) [AP5]
effect on new learning ([1]; both types of task): severely impaired | effect on retention of a previously learned olfactory discrimination or watermaze task [1]: no effect

KLSSIESDV [NR2B (1474-1482), NR2B C-terminal peptide]
proteins bound by peptide covalently linked to affigel-10 [2]: did not show any binding pattern similar to the slightly shorter one

COc1ccc2c(c1)[C@]13CCCC[C@@H]1[C@H](C2)N(C)CC3 [Dextromethorphan]
proteins / multi-protein complex retained on immobilised ligand [3]: only marginal amounts of both NR1 and NR2B were present, but surprisingly a comparatively large amount of PSD-95

NC1CCN(O)C1=O (stereo not drawn) [HA-966, 3-amino-1-hydroxy-2-pyrrolidone]
proteins / multi-protein complex retained on immobilised ligand [3, 8]: found positive for NMDA receptor channel components and the attached PSD-95 | proteins / multi-protein complex retained on immobilised ligand ([3]; ligand coupled to affigel-10): found positive for NMDA receptor channel components and the attached PSD-95

COc1ccc(S(=O)(=O)N(CCO)c2ccccc2CN(C)C/C=C/c2ccc(Cl)cc2)cc1 [KN93]
reversal of thermal hyperalgesia ipsilateral to CCI [4]: reversal | reversal of mechanical allodynia ipsilateral to CCI [5]: reversal

CC(C(O)c1ccc(O)cc1)N1CCC(Cc2ccccc2)CC1 (stereo not drawn) [Ifenprodil]
proteins / multi-protein complex retained on immobilised ligand [3]: capable of binding the multi-protein complex and many other molecules, though to a slightly lower degree than the Arcaine resin

RRAIEREEGQLQLCSRHRES [NR1 C-terminal peptide, last 20 amino acids of NR1, 919-938]
proteins bound by peptide covalently linked to affigel-10 [2]: showed no evident binding pattern

CN[C@H](CC(=O)O)C(=O)O [NMDA, N-methyl-D-aspartate]
effect on thermal behavioural responses in PSD-95 mutants [4, 9]: unaffected | induction of thermal hyperalgesia-like behavioural change [4, 10]: bilaterally mimicked | effect on mechanical behavioural responses in PSD-95 mutants [5, 9]: unaffected | induction of mechanical allodynia-like behavioural change [5, 10]: bilaterally mimicked | activation of constitutive CaM kinase II activity, wild type versus PSD-95 mutant [6]: equivalent | proteins / multi-protein complex retained on immobilised ligand [3]: only marginal quantities of the multi-protein complex were retained

myristoyl-autocamtide 2-related inhibitory peptide
reversal of thermal hyperalgesia ipsilateral to CCI [4]: reversal | reversal of mechanical allodynia ipsilateral to CCI [5]: reversal

NC(=O)C[C@H](N)C(=O)O [L-Asparagine]
proteins / multi-protein complex retained on immobilised ligand ([3]; ligand coupled to affigel-10): bound to an array of protein species

O=C(O)[C@H]1CN(CCCP(=O)(O)O)CCN1 [(R)-CPP]
effect on contralateral responses (thermal) [4, 11]: no effect | effect on paw withdrawal latency in PSD-95 mutants ([4]; PSD-95 mutant mice with CCI, intrathecal 100 ρmol in 10 μl): had no effect; also recorded: unaffected | reversal of thermal hyperalgesia ipsilateral to CCI [4]: completely reversed | effect on contralateral responses (mechanical) [5, 11]: In no case was there any significant effect | effect on paw withdrawal threshold in PSD-95 mutants ([5]; PSD-95 mutant mice with CCI, intrathecal): unaffected | effect in naive or sham-operated mice ([5]; naive or sham-operated wild type or PSD-95 mutant mice (data not shown)): had no effect | reversal of mechanical allodynia ipsilateral to CCI [5]: completely reversed | effect on elevated proportion of constitutive CaM kinase II activity ipsilateral to CCI ([6]; wild type mice with CCI, topical application): entirely prevented

C[C@H](CCC(=O)O)C[C@H](C)C[C@H](C)C(=O)/C=C(\O)[C@H](C)C[C@H](C)C/C=C/[C@@H](C)[C@@H](O)[C@@H](C)[C@@H](O)C[C@@H]1CC[C@@](C)([C@H]2CC[C@@](C)([C@@H](C)O)O2)O1 [ionomycin]
activation of constitutive CaM kinase II activity, wild type versus PSD-95 mutant [6]: equivalent

NC(N)=NCCCCN=C(N)N [Arcaine]
proteins / multi-protein complex retained on immobilised ligand ([3]; ligand coupled to affigel-10): substantial amount of protein did interact with immobilised Arcaine, including NR1, NR2B and PSD-95

COc1ccc(S(=O)(=O)Nc2ccccc2CN(C)C/C=C/c2ccc(Cl)cc2)cc1 [KN92]
reversal of thermal hyperalgesia ipsilateral to CCI [4]: to a smaller extent

N#CC(=C(/N)Sc1ccccc1N)/C(C#N)=C(\N)Sc1ccccc1N [U0126]
fEPSPs after 5 Hz stimulation ([7]; slices from PSD-95 mutant mice continuously exposed to U0126, N=14 slices): 270±12 % of baseline | effect on induction of LTP by a brief train of 5 Hz stimulation ([7]; wild type slices, 20 μM): strongly suppressed the induction of LTP | fEPSPs after 5 Hz stimulation ([7]; wild type slices, continuously bathed in U0126 (20 *M) at least 60 min before 5 Hz stimulation, N=11 slices): 137±9 % of baseline

SIESDV [NR2B (1477-1482)]
proteins bound by peptide covalently linked to affigel-10 [2]: revealed several bands at 75 and 100 kDa; also recorded: capable of not only purifying PSD-95 and other members of this family, but also the NMDA receptor itself

NC(CCCP(=O)(O)O)C(=O)O [D-AP5]
proteins / multi-protein complex retained on immobilised ligand [3, 8]: bound to an array of protein species | proteins / multi-protein complex retained on immobilised ligand ([3]; ligand coupled to affigel-10): ineffective in the isolation of any protein
